Data: US9060997B2, “Antifolate compounds for the treatment of melanoma” (UNIVERSIDAD DE MURCIA, priority 2007, dated 2015)
Read-outs that look alike come from different tables or passages of the source.

What was measured:
[1] = tested on: 4T1 mice breast cancer cell line; test: 4T1 breast cancer model in Balb/c mice; format: in vivo, mouse; conditions: 40 mg/Kg/d intraperitoneally, Balb/c female mice
Protocol: The 4T1 mice breast cancer cell line (ATCC) was used for tumour implantation. This cell line is highly metastatic and after its injection on the back of the Balb/c mice it expanded to the lungs forming metastasis in this organ. Initial experiments were designed for injection in the back to follow tumour growth and lung metastasis.
We treated 6 Balb/c female mice were treated intraperitoneally with TMCG (40 mg/Kg/d) and compared with 6 untreated (control) mice.

[2] = target: T1, rHDHFR (Homo sapiens, UniProt P00374); test: rHDHFR binding: fluorescence titration and stopped-flow fluorescence; conditions: for koff: calculated from KI=koff/kon; for Ki: dissociation constant, free rHDHFR, fluorescence titration; for Ki / kon: pH 7.4, 25° C.; for kon: stopped-flow fluorescence
T1 construct: purchased Sigma
T1 sequence (P00374 1-187): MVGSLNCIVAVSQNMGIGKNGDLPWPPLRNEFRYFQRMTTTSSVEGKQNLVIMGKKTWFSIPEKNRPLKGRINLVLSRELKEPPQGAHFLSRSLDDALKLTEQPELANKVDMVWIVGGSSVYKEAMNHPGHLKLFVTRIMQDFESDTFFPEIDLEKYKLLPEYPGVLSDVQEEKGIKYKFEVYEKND
Protocol: The experiments were carried out in a buffer containing 2-(N-morpholino)ethanesulfonic acid (Mes, 0.025 M), sodium acetate (0.025 M), tris-(hydroxymethyl)aminomethane (Tris 0.05 M), and NaCl (0.1 M) at pH 7.4 and 25° C. in the presence of QM and rHDHFR (0.5 μM).
Stopped-flow fluorescence experiments were carried out at pH 7.4 and 25° C. using an enzyme concentration of 0.25 μM. The reaction of rHDHFR with inhibitors was observed under pseudo-first order conditions by fluorescence at 340 nm (excitation at 290 nm). The data points s are the means of at least 3 (normally 5) repeat observations±SD. […] Aliquots (20 μl) of the incubation mixture was then diluted 50-fold into a reaction mixture containing the buffer, NADPH (100 μM), and DHF (10 μM) to give a final enzyme concentration of 1.5 nM.
(§1) The activity of rHDHFR was determined at 25° C. by following the decrease in the absorbance of NADPH and DHF at 340 nm (ε=11800 M-1 cm−1) (Stone and Morrison, 1986). Progress curves were obtained under ordered conditions ([NADPH]>>[DHF]). rHDHFR inhibition constants were calculated as described by Navarro-Perán et al., 2005b. The dissociation constant for the binding of inhibitors to free rHDHFR was determined at 25° C. by fluorescence titration in an automatic-scanning Perkin-Elmer LS50B spectrofluorimeter. Fluorescence emission spectra were recorded when rHDHFR fluorescence was excited at 290 nm. Stopped-flow fluorescence experiments were carried out using an Applied Photophysics Ltd. Pi-Star 180 spectrometer with a stopped-flow unit at 25° C.

[3] = target: T1, rHDHFR; test: rHDHFR inhibition, progress curves; format: biochemical; conditions: for Decrease % further EI reactions: decrease of KI to KI* by further EI-complex reactions; for Ki: overall (effective) inhibition constant, read-out: KI*
Protocol: The experiments were carried out in the same buffer as fluorescence experiments in the presence of NADPH (100 μM), DHF (10 μM), and rHDHFR (1.5 nM).
as §1

[4] = target: T2, human tyrosinase (Homo sapiens, UniProt P14679); conditions: recombinant human tyrosinase (Kong et al., 2000); read-out: Michaelis-Menten constant (Km), value reported; cited from earlier work
T2 sequence (P14679 19-529): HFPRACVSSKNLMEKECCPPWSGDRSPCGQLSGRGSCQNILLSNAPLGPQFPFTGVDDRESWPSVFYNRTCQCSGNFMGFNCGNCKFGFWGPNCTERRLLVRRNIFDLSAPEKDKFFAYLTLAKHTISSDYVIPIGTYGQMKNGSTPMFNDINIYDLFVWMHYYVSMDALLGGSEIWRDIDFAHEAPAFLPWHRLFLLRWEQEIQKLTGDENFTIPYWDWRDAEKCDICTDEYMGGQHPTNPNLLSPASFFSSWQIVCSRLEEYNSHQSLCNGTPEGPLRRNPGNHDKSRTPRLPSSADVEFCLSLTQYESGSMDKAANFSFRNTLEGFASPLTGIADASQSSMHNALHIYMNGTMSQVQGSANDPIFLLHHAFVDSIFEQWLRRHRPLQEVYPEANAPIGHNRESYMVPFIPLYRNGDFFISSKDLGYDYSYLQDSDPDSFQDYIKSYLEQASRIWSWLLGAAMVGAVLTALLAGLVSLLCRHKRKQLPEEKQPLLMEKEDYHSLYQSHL

[5] = tested on: MAT2A; conditions: cited from earlier work
[6] = tested on: Caco-2 cells; test: MTT cell proliferation assay, Caco-2; format: cell-based, human; conditions: Caco-2
Protocol: (§2) Four human cancer cells lines (SkMel-28, MCF7, H1264 and Caco-2) were obtained from the American Type Tissue Culture Collection (ATCC) and were maintained in appropriate culture mediums supplemented with 10% fetal calf serum (FCS) and antibiotics, under standard tissue culture conditions (e.g. modified Eagle's medium (MEM) containing 1 mM sodium pyruvate and 10% fetal bovine serum (FES) under 5% CO2/95% air atmosphere.). Cell injury was evaluated by a colorimetric assay for mitochondrial function using the 3-(4,5-dimethylthiazolyl-2)-2,5-diphenyltetrazolium bromide (MTT) cell proliferation assay. For this assay cells were plated in a 96-well plate at a density of 1000 cells/well and grown until they reached 50-60% confluence. Human epidermal melanocytes (HeM) were supplied by Gentaur and were cultured in HAM-F10 medium supplemented with 10% FCS, antibiotics and the human melanocyte growth supplement (Gentaur).

[7] = tested on: SkMel-28 cells; test: MTT cell proliferation assay, SkMel-28; format: cell-based, human; conditions: for IC50: SK-MEL-28, 120 h
Protocol: as §2
Cell injury was evaluated by a colorimetric assay for mitochondrial function using the 3-(4,5-dimethylthiazolyl-2)-2,5-diphenyltetrazolium bromide (MTT) cell proliferation assay. For this assay cells were plated in a 96-well plate at a density of 1000 cells/well and grown until they reached 30% confluence. Co-treatments of SkMel-28 cells with TMECG and other reagents were carried out by supplementing medium cultures with S-adenosylmethionine (SAM), adenosine or dipyridamole (all from Sigma).

[8] = tested on: B16/F10 melanoma cell tumours; test: Primary tumour model, B16/F10 melanoma in C57/B16 mice; format: in vivo, mouse
Description: Translational therapy was then designed to probe the efficacy of this combination on mice induced melanoma tumor. Injection of 5×10^5 B16/F10 melanoma cells in the back of C57/B16 mice formed a blackish tumor mass, which in untreated control mice reached to a tumor area of 3.7±0.7 and 9.3±1.1 cm2 in female and male, respectively, after 21 days of cells inoculation.

[9] = pH dependence of absorbance and stability of the tyrosinase product; format: physicochemical
Description: We studied the oxidation of TMECG by tyrosinase at pH 5.5. […] The initial formation of o-Q was confirmed by including reducing agents such as ascorbic acid or NADPH in the reaction medium. […] The pH transition might represent the equilibrium between the protonated form (QMH) and the deprotonated form (QM^−), a species which is stabilized by resonance and FIG. 9E represents the possible abundance of QM species in different melanocyte compartments.

[10] = tested on: Caco-2 and SkMel-28 cells; test: Cellular uptake of ECG, TMECG and QM; format: in vitro ADME, human; conditions: 50 μM catechins
Protocol: Cellular uptake was determined by the difference between the initial concentration of catechin and the calculated at specific times in the cellular medium, and expressed as a percentage of catechin at zero time. The values presented are the mean percentage determined from five independent experiments±SD.
For cellular uptake experiments Caco-2 and SkMel-28 cells were grown until reaching 90% confluence. Then, 20 ml of cellular medium containing 50 μM catechins and 0.2 mM ascorbic acid was added and incubated for 60 h in a CO2 incubator. At specified times 1 ml-aliquots were taken and frozen in liquid N2 until the catechin concentrations were determined by HPLC. Catechins were identified by their characteristic elution times and their concentration calculated with respect to calibration curves of known concentrations of catechins.

[11] = tested on: SkMel-28 cells; test: Microscopy of melanosome melanin content; format: cell-based, human; conditions: treated SkMel-28 versus untreated
Protocol: Confluent monolayers of SkMel-28 were harvested with a mixture of 0.05% trypsin, 0.53 mmol/L EDTA and washed once in 0.25 mol/L sucrose by centrifugation at 700×g for 5 min at 4° C. They were then homogenized on ice using 20 strokes of an ice-cold Dounce homogenizer and centrifuged at 700×g for 10 min at 4° C. The resultant postnuclear supernatant was centrifuged at 17,000×g for 15 min at 4° C. to yield a melanosome-enriched granular fraction (17). This fraction was resuspended in 0.5-2 ml of ice-cold 0.25 mol/L sucrose, 10 mmol/L HEPES, pH 7.0 and fixed for 1 h at room temperature in 2% glutaraldehyde, 2% paraformaldehyde in 0.1 mol/L sodium cacodylate buffer, pH 7.3. The fixative was then removed and the samples stored in PBS containing 4% sucrose at 4° C. Samples were subsequently dehydrated with graded alcohols and embedded in epoxy resin. This section were stained with uranyl acetate and lead citrate and examined with a Zeiss EM10 electron microscope.

With `COc1cc(C(=O)O[C@H]2Cc3c(O)cc(O)cc3O[C@@H]2c2ccc(O)c(O)c2)cc(OC)c1OC` [TMCG, 3-O-(3,4,5-Trimethoxybenzoyl)-(−)-Catechin] the “growth of metastases (lung tumor volume)” value [1] was “slower growth of metastases”.

Molecule “epicatechin-3-gallate [ECG, reference compound]” has a koff [2] of 0.30 s⁻¹, a Ki [2] of 1780 nM and a kon [2] of 170000 M⁻¹ s⁻¹. For the same molecule, the “Decrease % further EI reactions” value [3] was 19 −fold and the Ki [3] was 92 nM.

For `N[C@@H](Cc1ccc(O)c(O)c1)C(=O)O` [L-dopa], the Km [4] is listed as 360 µM.

For `CSCC[C@H](N)C(=O)O` [methionine], the Km [5] is listed as 4 to 10 µM.

In the case of `Oc1cc(O)c2c(c1)O[C@H](c1ccc(O)c(O)c1)[C@H](O)C2` [EC, Epicatechin, reference compound], the “effect of natural and synthetic catechins on Caco-2 growth” value [6] is reported as “no detectable activity”.

Molecule `O=C(O[C@@H]1Cc2c(O)cc(O)cc2O[C@@H]1c1cc(O)c(O)c(O)c1)c1cc(O)c(O)c(O)c1` [EGCG, reference compound] has a koff [2] of 0.12 s⁻¹, a Ki [2] of 920 nM and a kon [2] of 130000 M⁻¹ s⁻¹. For the same molecule, the “Decrease % further EI reactions” value [3] was 28 −fold and the Ki [3] was 33 nM.

In the case of `C[S+](CC[C@H](N)C(=O)O)C[C@H]1O[C@@H](n2cnc3c(N)ncnc32)[C@H](O)[C@@H]1O` (stereo partly shown) [SAM, S-adenosylmethionine, reference compound], the IC50 ([5]; Sullivan and Hoffman, 1983, read-out: IC50 for inhibition of MAT2) is given as 60000 nM and the “effect of SAM alone on SkMel-28 growth” value ([7]; SAM alone) is given as “Only high amount of SAM (up to 100 μM) affected SkMel-28 growth”.

For `OCCN(CCO)c1nc(N2CCCCC2)c2nc(N(CCO)CCO)nc(N3CCCCC3)c2n1` [Dipyridamole, dipyridamole, reference compound], the IC50 ([7]; Homo sapiens, dipyridamole alone, SkMel-28, read-out: IC50 (at 5 days)) was 20000 nM, the IC50 ([7]; Homo sapiens, in the presence of 50 μM TMECG, SkMel-28, read-out: IC50 (at 5 days) in the presence of TMECG) was under 1000 nM and the “effect on tumor growth” value ([8]; females, DIPY 10 mg/Kg/d alone) was “had not visible effects on tumor growth”. The “effect of single treatments” value ([8]; male mice) was “not effective”.

For `Nc1ncnc2c1ncn2[C@@H]1O[C@H](CO)[C@@H](O)[C@H]1O` [Adenosine, adenosine], the “effect of adenosine alone on SkMel-28 growth” value ([7]; up to 500 μM) was “had not any detectable effect”.

For `COc1cc(C(=O)O[C@H](Cc2c(O)cc(O)cc2O)C(=O)c2ccc(O)c(O)c2)cc(OC)c1OC` [QM], the stability [9] was “high stability over a wide pH range”, the pKa ([9]; absorbance at 470 nm vs pH, read-out: pKa of ionisable group) was 6.9 ± 0.1 and the “reversibility of binding to rHDHFR” value [2] was “essentially irreversible”. For the same molecule, the koff ([2]; read-out: koff) was 0.00048 s⁻¹, the Ki [2] was 8.2 ± 0.11 nM and the kon ([2]; read-out: kon) was 58000 M⁻¹ s⁻¹. The “Decrease % further EI reactions” value [3] was 0 −fold, the Ki [3] was 8.2 nM and the “cellular uptake / membrane transport” value [10] was “limited degree of cell membrane diffusion”.

For `CN(Cc1cnc2nc(N)nc(N)c2n1)c1ccc(C(=O)N[C@@H](CCC(=O)O)C(=O)O)cc1` [MTX, methotrexate], the “effect of leucovorin co-treatment on growth inhibition” value ([7]; 100 μM leucovorin, MTX 1 μM or TMECG 50 μM, 3 days) was “effectively reversed this inhibition”, the inhibition at 1 µM ([7]; Homo sapiens, SK-MEL-28, 72 h, 1 μM, 3 days, SkMel-28, read-out: growth inhibited) was 70% and the “effect of sulfasalazine (RFC inhibitor) on antiproliferative action” value ([7]; sulfasalazine 0.5 mM, MTX 0.2 μM or TMECG 10 μM, 3 days) was “inhibited the antiproliferative action of MTX”. The melanosome melanin content [11] was “much less melanin content”.
